# Experimental data: paper PMC11999280, “Design and screening of novel endosomal escape compounds that enhance functional delivery of oligonucleotides in vitro” (Molecular Therapy. Nucleic Acids, 2025)
# How the values were obtained:
# Assay type in all cases: cell-based
# [1] = test system: mCherry-GAL9 expressing HuH7 cells; assay: GAL9 recruitment assay, HuH7; conditions: calculated mean from >3 independent exp.
# Outline: (§1)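 Using cell lines stably carrying mCherry-GAL9, dose-response treatment begins 24 h after seeding; fixed (4% paraformaldehyde) and Hoechst-stained cells are imaged by confocal microscopy and GAL9 structures counted. Each treatment runs in duplicate wells over three experiments.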
# [2] = test system: mCherry-GAL9 expressing NCI-H358 cells; assay: GAL9 recruitment assay, NCI-H358; conditions: calculated mean from >3 independent exp.
# Outline: as §1
# [3] = test system: mCherry-GAL9 expressing HeLa cells; assay: GAL9 recruitment assay, HeLa; conditions: calculated mean from >3 independent exp.
# Outline: as §1
# [4] = test system: HeLa_Luc705 cells (pLuc/705 splice-switching reporter); assay: Functional 705-SSO delivery, luciferase splice-switching assay; conditions: HeLa-Luc705 + 2 µM SSO, mean from >3 independent experiments
# Outline: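 Splice correction was measured as firefly luciferase luminescence in Triton X-100 lysates taken 24 h after enhancer treatment. Before treatment, the 10,000 cells/well had spent 24 h with 1–2 μM 705-SSO (2′-OMe, phosphorothioate). For comparison, 100–200 nM SSO was lipofected with LF2000.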
# [5] = test system: mCherry-GAL9 expressing U2OS cells; assay: GAL9 recruitment assay, U2OS; conditions: calculated mean from >3 independent exp.
# Outline: as §1
# [6] = test system: mCherry-GAL9 expressing SHSY5Y cells; assay: GAL9 recruitment assay, SHSY5Y; conditions: calculated mean from >3 independent exp.
# Outline: as §1
# [7] = test system: mCherry-GAL9 expressing 16HBE cells; assay: GAL9 recruitment assay, 16HBE; conditions: calculated mean from >3 independent exp.
# Outline: as §1
# [8] = test system: mCherry-GAL9 expressing HepG2 cells; assay: GAL9 recruitment assay, HepG2; conditions: calculated mean from >3 independent exp.
# Outline: as §1
# [9] = test system: mCherry-GAL9 expressing HEK293 cells; assay: GAL9 recruitment assay, HEK293; conditions: calculated mean from >3 independent exp.
# Outline: as §1
compound,measurement,setting,value
COc1nn(C2CCNCC2)cc1Nc1ncc(F)c(-c2c[nH]c3ccccc23)n1 [EEE23],Gal9 response compared to reference,[1]; EEE 0.31 µM,0.007
same,Gal9 response compared to reference,[1]; EEE 0.62 µM,0.008
same,Gal9 response compared to reference,[1]; EEE 1.25 µM,0.009
same,Gal9 response compared to reference,[1]; EEE 2.5 µM,0.009
same,Gal9 response compared to reference,[1]; EEE 5 µM,0.010
same,Gal9 response compared to reference,[1]; EEE 10 µM,0.011
same,Gal9 response compared to reference,[2]; EEE 0.31 µM,0.013
same,Gal9 response compared to reference,[2]; EEE 0.62 µM,0.015
same,Gal9 response compared to reference,[2]; EEE 1.25 µM,0.012
same,Gal9 response compared to reference,[2]; EEE 2.5 µM,0.017
same,Gal9 response compared to reference,[2]; EEE 5 µM,0.017
same,Gal9 response compared to reference,[2]; EEE 10 µM,0.021
same,Gal9 response compared to reference,[3]; EEE 0.31 µM,0.004
same,Gal9 response compared to reference,[3]; EEE 0.62 µM,0.005
same,Gal9 response compared to reference,[3]; EEE 1.25 µM,0.004
same,Gal9 response compared to reference,[3]; EEE 2.5 µM,0.005
same,Gal9 response compared to reference,[3]; EEE 5 µM,0.005
same,Gal9 response compared to reference,[3]; EEE 10 µM,0.008
same,Luciferase expression compared to reference,[4]; EEE 5 µM,65.259
same,Luciferase expression compared to reference,[4]; EEE 1-1.25 µM,0.775
same,Luciferase expression compared to reference,[4]; EEE 2.5 - 3 µM,1.207
same,Gal9 response compared to reference,[5]; EEE 0.31 µM,0.011
same,Gal9 response compared to reference,[5]; EEE 0.62 µM,0.012
same,Gal9 response compared to reference,[5]; EEE 1.25 µM,0.015
same,Gal9 response compared to reference,[5]; EEE 2.5 µM,0.015
same,Gal9 response compared to reference,[5]; EEE 5 µM,0.012
same,Gal9 response compared to reference,[5]; EEE 10 µM,0.017
same,Gal9 response compared to reference,[6]; EEE 0.31 µM,0.013
same,Gal9 response compared to reference,[6]; EEE 0.62 µM,0.015
same,Gal9 response compared to reference,[6]; EEE 1.25 µM,0.013
same,Gal9 response compared to reference,[6]; EEE 2.5 µM,0.013
same,Gal9 response compared to reference,[6]; EEE 5 µM,0.017
same,Gal9 response compared to reference,[6]; EEE 10 µM,0.087
same,Gal9 response compared to reference,[7]; EEE 0.31 µM,0.008
same,Gal9 response compared to reference,[7]; EEE 0.62 µM,0.010
same,Gal9 response compared to reference,[7]; EEE 1.25 µM,0.010
same,Gal9 response compared to reference,[7]; EEE 2.5 µM,0.012
same,Gal9 response compared to reference,[7]; EEE 5 µM,0.017
same,Gal9 response compared to reference,[7]; EEE 10 µM,0.032
same,Gal9 response compared to reference,[8]; EEE 0.31 µM,0.006
same,Gal9 response compared to reference,[8]; EEE 0.62 µM,0.006
same,Gal9 response compared to reference,[8]; EEE 1.25 µM,0.007
same,Gal9 response compared to reference,[8]; EEE 2.5 µM,0.005
same,Gal9 response compared to reference,[8]; EEE 5 µM,0.004
same,Gal9 response compared to reference,[8]; EEE 10 µM,0.005
same,Gal9 response compared to reference,[9]; EEE 0.31 µM,0.019
same,Gal9 response compared to reference,[9]; EEE 0.62 µM,0.015
same,Gal9 response compared to reference,[9]; EEE 1.25 µM,0.015
same,Gal9 response compared to reference,[9]; EEE 2.5 µM,0.016
same,Gal9 response compared to reference,[9]; EEE 5 µM,0.025
same,Gal9 response compared to reference,[9]; EEE 10 µM,0.042
COc1nn(C2CCN(C(C)C)CC2)cc1Nc1ncc(F)c(-n2ccc3c(C#N)cccc32)n1 [EEE9],Gal9 response compared to reference,[1]; EEE 0.31 µM,0.012
same,Gal9 response compared to reference,[1]; EEE 0.62 µM,0.009
same,Gal9 response compared to reference,[1]; EEE 1.25 µM,0.019
same,Gal9 response compared to reference,[1]; EEE 2.5 µM,0.083
same,Gal9 response compared to reference,[1]; EEE 5 µM,0.220
same,Gal9 response compared to reference,[1]; EEE 10 µM,0.366
same,Gal9 response compared to reference,[2]; EEE 0.31 µM,0.018
same,Gal9 response compared to reference,[2]; EEE 0.62 µM,0.020
same,Gal9 response compared to reference,[2]; EEE 1.25 µM,0.031
same,Gal9 response compared to reference,[2]; EEE 2.5 µM,0.212
same,Gal9 response compared to reference,[2]; EEE 5 µM,0.569
same,Gal9 response compared to reference,[2]; EEE 10 µM,0.627
same,Gal9 response compared to reference,[3]; EEE 0.31 µM,0.005
same,Gal9 response compared to reference,[3]; EEE 0.62 µM,0.005
same,Gal9 response compared to reference,[3]; EEE 1.25 µM,0.007
same,Gal9 response compared to reference,[3]; EEE 2.5 µM,0.110
same,Gal9 response compared to reference,[3]; EEE 5 µM,0.393
same,Gal9 response compared to reference,[3]; EEE 10 µM,0.495
same,Luciferase expression compared to reference,[4]; EEE 2.5 - 3 µM,0.692
same,Gal9 response compared to reference,[5]; EEE 0.31 µM,0.012
same,Gal9 response compared to reference,[5]; EEE 0.62 µM,0.013
same,Gal9 response compared to reference,[5]; EEE 1.25 µM,0.018
same,Gal9 response compared to reference,[5]; EEE 2.5 µM,0.055
same,Gal9 response compared to reference,[5]; EEE 5 µM,0.254
same,Gal9 response compared to reference,[5]; EEE 10 µM,0.502
same,Gal9 response compared to reference,[6]; EEE 0.31 µM,0.013
same,Gal9 response compared to reference,[6]; EEE 0.62 µM,0.016
same,Gal9 response compared to reference,[6]; EEE 1.25 µM,0.117
same,Gal9 response compared to reference,[6]; EEE 2.5 µM,0.756
same,Gal9 response compared to reference,[6]; EEE 5 µM,0.780
same,Gal9 response compared to reference,[6]; EEE 10 µM,0.696
same,Gal9 response compared to reference,[7]; EEE 0.31 µM,0.010
same,Gal9 response compared to reference,[7]; EEE 0.62 µM,0.013
same,Gal9 response compared to reference,[7]; EEE 1.25 µM,0.042
same,Gal9 response compared to reference,[7]; EEE 2.5 µM,0.209
same,Gal9 response compared to reference,[7]; EEE 5 µM,0.533
same,Gal9 response compared to reference,[7]; EEE 10 µM,0.691
same,Gal9 response compared to reference,[8]; EEE 0.31 µM,0.009
same,Gal9 response compared to reference,[8]; EEE 0.62 µM,0.009
same,Gal9 response compared to reference,[8]; EEE 1.25 µM,0.007
same,Gal9 response compared to reference,[8]; EEE 2.5 µM,0.011
same,Gal9 response compared to reference,[8]; EEE 5 µM,0.060
same,Gal9 response compared to reference,[8]; EEE 10 µM,0.564
same,Gal9 response compared to reference,[9]; EEE 0.31 µM,0.028
same,Gal9 response compared to reference,[9]; EEE 0.62 µM,0.032
same,Gal9 response compared to reference,[9]; EEE 1.25 µM,0.071
same,Gal9 response compared to reference,[9]; EEE 2.5 µM,0.396
same,Gal9 response compared to reference,[9]; EEE 5 µM,0.712
same,Gal9 response compared to reference,[9]; EEE 10 µM,0.639
CCCN1CCC(n2cc(Nc3ncc(F)c(-n4ccc5c(C#N)cccc54)n3)c(OC)n2)CC1 [EEE10],Gal9 response compared to reference,[1]; EEE 0.31 µM,0.011
same,Gal9 response compared to reference,[1]; EEE 0.62 µM,0.009
same,Gal9 response compared to reference,[1]; EEE 1.25 µM,0.016
same,Gal9 response compared to reference,[1]; EEE 2.5 µM,0.121
same,Gal9 response compared to reference,[1]; EEE 5 µM,0.252
same,Gal9 response compared to reference,[1]; EEE 10 µM,0.414
same,Gal9 response compared to reference,[2]; EEE 0.31 µM,0.017
same,Gal9 response compared to reference,[2]; EEE 0.62 µM,0.016
same,Gal9 response compared to reference,[2]; EEE 1.25 µM,0.031
same,Gal9 response compared to reference,[2]; EEE 2.5 µM,0.194
same,Gal9 response compared to reference,[2]; EEE 5 µM,0.633
same,Gal9 response compared to reference,[2]; EEE 10 µM,0.662
same,Gal9 response compared to reference,[3]; EEE 0.31 µM,0.005
same,Gal9 response compared to reference,[3]; EEE 0.62 µM,0.005
same,Gal9 response compared to reference,[3]; EEE 1.25 µM,0.005
same,Gal9 response compared to reference,[3]; EEE 2.5 µM,0.145
same,Gal9 response compared to reference,[3]; EEE 5 µM,0.463
same,Gal9 response compared to reference,[3]; EEE 10 µM,0.588
same,Luciferase expression compared to reference,[4]; EEE 2.5 - 3 µM,0.565
same,Gal9 response compared to reference,[5]; EEE 0.31 µM,0.011
same,Gal9 response compared to reference,[5]; EEE 0.62 µM,0.012
same,Gal9 response compared to reference,[5]; EEE 1.25 µM,0.016
same,Gal9 response compared to reference,[5]; EEE 2.5 µM,0.076
same,Gal9 response compared to reference,[5]; EEE 5 µM,0.260
same,Gal9 response compared to reference,[5]; EEE 10 µM,0.512
same,Gal9 response compared to reference,[6]; EEE 0.31 µM,0.015
same,Gal9 response compared to reference,[6]; EEE 0.62 µM,0.024
same,Gal9 response compared to reference,[6]; EEE 1.25 µM,0.123
same,Gal9 response compared to reference,[6]; EEE 2.5 µM,0.877
same,Gal9 response compared to reference,[6]; EEE 5 µM,0.887
same,Gal9 response compared to reference,[6]; EEE 10 µM,0.717
same,Gal9 response compared to reference,[7]; EEE 0.31 µM,0.010
same,Gal9 response compared to reference,[7]; EEE 0.62 µM,0.011
same,Gal9 response compared to reference,[7]; EEE 1.25 µM,0.028
same,Gal9 response compared to reference,[7]; EEE 2.5 µM,0.183
same,Gal9 response compared to reference,[7]; EEE 5 µM,0.522
same,Gal9 response compared to reference,[7]; EEE 10 µM,0.746
same,Gal9 response compared to reference,[8]; EEE 0.31 µM,0.008
same,Gal9 response compared to reference,[8]; EEE 0.62 µM,0.007
same,Gal9 response compared to reference,[8]; EEE 1.25 µM,0.007
same,Gal9 response compared to reference,[8]; EEE 2.5 µM,0.008
same,Gal9 response compared to reference,[8]; EEE 5 µM,0.026
same,Gal9 response compared to reference,[8]; EEE 10 µM,0.371
same,Gal9 response compared to reference,[9]; EEE 0.31 µM,0.023
same,Gal9 response compared to reference,[9]; EEE 0.62 µM,0.026
same,Gal9 response compared to reference,[9]; EEE 1.25 µM,0.051
same,Gal9 response compared to reference,[9]; EEE 2.5 µM,0.379
same,Gal9 response compared to reference,[9]; EEE 5 µM,0.672
same,Gal9 response compared to reference,[9]; EEE 10 µM,0.647
